Data: patent publication US10451637B2, “Synthetic blood vessels and uses thereof” (THE UNIVERSITY OF BRITISH COLUMBIA, priority 2017, dated 2019)
“Also recorded” adds a separate entry of the source.

Experiments:
endothelial barrier = experiment: Endothelial barrier integrity, Evans blue injected into circulation loop; type: in vitro ADME, human; details: tripartite and bipartite vessels
From the text: The integrity of the endothelial barrier in tripartite vessels was functionally assessed by injecting Evans blue into the circulation loop and compared to bipartite vessels. As expected, Evans blue was excluded in both tripartite and bipartite vessels (FIG. 1A).

[1] = tested on: native apoE secreted by astrocytes; experiment: Astrocyte apoE secretion in tripartite vessels (ELISA); type: cell-based, human; details: GW3965 circulated through lumen 72 h
Procedure: All experiments were conducted under an approved clinical protocol (UBC Clinical Ethics Research Board H14-03357). Upon receipt of written informed consent, 100 ml of fasted blood was collected from normolipidemic healthy donors into vacutainer tubes containing EDTA. Plasma HDL (1.063-1.21 g/ml) was isolated by sequential potassium bromide gradient ultracentrifugation. The purity of the HDL preparations were verified by sodium dodecyl sulfate polyacrylamide gel electrophoresis (SDS-PAGE) followed by Coomassie blue staining to ensure no low-density lipoprotein (LDL) or albumin contamination. Total protein concentration was assessed using the bicinchoninic acid (BCA) assay (Thermofisher Scientific). Recombinant ApoE2 and ApoE4 were commercially purchased and solubilized following the manufacturer's instructions (ABCAM, apoE2 ab55210 and apoE4 ab50243). Secretion of endogenous ApoE from human astrocytes in tripartite vessels was induced by injecting 0.8 μM GW3965 in the circulation medium 72 h prior to addition of Aβ. ApoE concentrations were measured using enzyme linked immunosorbent assay (ELISA) as previously described (Fan et al. 2016 PLoS One. September 6; 11(9):e0162384). […] Fluorescence was read after 15 min at RT on an EnSpire 2300 Multilabel Plate Reader (325Ex/420Em). […]

glutamate release = experiment: Neuronal functionality: glutamate release from quadripartite tissue (HPLC); type: cell-based, human; details: 50 nM KCl for 30 min
Procedure: After 21 days in culture, quadripartite tissue were harvested in Hanks buffered salt solution (HBSS) and cut in half. One half is incubated in HBSS without potassium chloride (KCl) and one half in HBSS with […] KCl. After 30 minutes buffer was collected and run through a GABA/glutamate affinity column on a high pressure liquid chromatography (HPLC) previously calibrated with glutamate standard (0 to 2.5 uM).
The functionality of the neurons was further evaluated by measuring glutamate release in the absence and presence of […] of KCL for 30 min. Glutamate release was then measured by HPLC (FIG. 9A). […] Finally, the secretion of endogenous neuronally-produced Aβ40 and Aβ42 in quadripartite tissue (FIG. 9B) and in circulatory medium (FIG. 9C) as measured by commercial ELISA as above.

NO synthase = experiment: NO production by EC in tripartite vessels (conversion of L-3H-arginine to L-3H-citruline); type: cell-based, human; details: 1 mM L-NAME with Ach or HDL stimulation
Procedure: Nitric oxide (NO) synthesis was measured using a commercial nitric oxide synthesis (NOS) activity assay kit (Caymenchemical). Briefly, a 2-3 mm ring of vascular tissue was mechanically ground in 150 μl of ice-cold homogenized buffer (25 mM Tris-Cl, pH7.4, 1 mM EDTA and 1 mM EGTA) and centrifuged 15 min at 4° C. at 10,000 g. The supernatant was aliquoted and incubated in reaction buffer containing 25 mM Tris-Cl, pH7.4, 0.25 mM EDTA, 0.6 mM CaCl2, 1 mM NADP, 200 nM calmodulin, 3 μM tetrahydrobiopterin, 1 μM flavin adenine dinucleotide, 1 μM flavin adenine monoucleotide and 0.2 μCi L-^3H-arginine; PerkinElmer) in the presence of 10 nM acetylcholine (Ach), 0.2 mg/ml HDL or 1 mM L-NG-nitroarginine methyl ester (L-NAME). After 60 min at 37° C., the reaction was stopped by adding 400 μl of stop buffer ([…] HEPES, 5 mM EDTA, pH 5.5). […] Scintillation mix (Ultimate Gold, PerkinElmer) was added to the supernatant and counted using LS6500 β-counter (Beckman Coulter). The percent citrulline formed was calculated as follows: % conversion=(cpm reaction-cpm background)/cpm total*100.
The functionality of EC and astrocytes within tripartite bioengineered vessels was evaluated by measuring nitric oxide (NO) produced by EC and native apoE secreted by astrocytes, which were genotyped as apoE3/apoE3. […]

Aβ42 [2] = experiment: Aβ42 transport into luminal circulating medium, bipartite vessels (ELISA); type: cell-based, human; details: 1 μM Aβ42, over 4 h, apoE ratio 25:1 antelumen, HDL 200 μg/ml circulating
Procedure: (§1) Recombinant Aβ40 and Aβ42 peptides (California Peptide) were dissolved in hexafluoroisopropanol (HFIP). The HFIP was removed by evaporation overnight and stocks were stored at −20° C. On the day of the assay, soluble monomers were prepared by reconstituting the peptide film in dimethylsulfoxide (DMSO) to 5 mM, diluted further to […] in Roswell Park Memorial Institute (RPMI) medium without FBS. 100 μl of Aβ solution was injected in the tissue chamber containing 900 μl of DMEM (Gibco) without FBS to the desired concentration using a syringe under flow conditions. For luminal recovery, 100 μl circulating medium was collected at the indicated time.
(§2) Luminal medium was collected from the circulation chamber and 5 mm tissue rings were crushed and lysed in radioimmunoprecipitation assay (RIPA) buffer (10 mM Tris pH 7.4, 150 mM NaCl, 1.0% NP-40, 1.0% sodium deoxycholate, 0.1% SDS and cOmplete protease inhibitor with EDTA (Roche)). Aβ40 (KHB3442, Life Tech) and Aβ42 (KHB3482, Life Tech) were quantified using commercial ELISAs and normalized to total protein concentration, measured by BCA.
(§3) Bipartite vessels were prepared as described above. […]

Aβ40 [3] = experiment: Aβ40 transport into luminal circulating medium, bipartite vessels (ELISA); type: cell-based, human; details: 1 μM Aβ40, over 4 h, apoE ratio 25:1 antelumen, HDL 200 μg/ml circulating
Procedure: as §1, §2
(§4) Genetic variation in APOE represents a common genetic risk for AD, with apoE4 considered detrimental and apoE2 protective (Zlokovic, 2013 JAMA Neurol 70(4):440-444). […]

Aβ40 [4] = experiment: Aβ40 accumulation in vascular tissue, bipartite vessels (ELISA); type: cell-based, human; details: 1 μM Aβ40, 24 h, apoE ratio 25:1, HDL 200 μg/ml
Procedure: as §1, §2, §4

Aβ42 [5] = experiment: Aβ42 accumulation in vascular tissue, bipartite vessels (ELISA); type: cell-based, human; details: 1 μM Aβ42, 24 h, apoE ratio 25:1, HDL 200 μg/ml
Procedure: as §1, §2, §3

Aβ42 [6] = experiment: Aβ42 accumulation in vascular tissue, tripartite vessels (ELISA); type: cell-based, human; details: after 24 h, relative to baseline tripartite conditions
Procedure: as §1
(§5) All experiments were conducted under an approved clinical protocol (UBC Clinical Ethics Research Board H14-03357). Upon receipt of written informed consent, 100 ml of fasted blood was collected from normolipidemic healthy donors into vacutainer tubes containing EDTA. Plasma HDL (1.063-1.21 g/ml) was isolated by sequential potassium bromide gradient ultracentrifugation. […] Total protein concentration was assessed using the bicinchoninic acid (BCA) assay (Thermofisher Scientific). […] ApoE concentrations were measured using enzyme linked immunosorbent assay (ELISA) as previously described (Fan et al. 2016 PLoS One. September 6; 11(9):e0162384). […] Fluorescence was read after 15 min at RT on an EnSpire 2300 Multilabel Plate Reader (325Ex/420Em). […]

Aβ40 [7] = experiment: Aβ40 accumulation in vascular tissue, tripartite vessels (ELISA); type: cell-based, human; details: after 24 h, relative to baseline tripartite conditions
Procedure: as §1, §5

Aβ40 [8] = experiment: Aβ40 transport into luminal circulating medium, tripartite vessels (ELISA); type: cell-based, human; details: 1 μM Aβ40, over 4 h, GW3965 0.8 μM 72 h (astrocyte apoE), HDL 200 μg/ml
Procedure: as §1, §5

Aβ42 [9] = experiment: Aβ42 transport into luminal circulating medium, tripartite vessels (ELISA); type: cell-based, human; details: 1 μM Aβ42, over 4 h, GW3965 0.8 μM 72 h (astrocyte apoE), HDL 200 μg/ml
Procedure: as §1, §5

Cc1cc(-c2ccc(/N=N/c3ccc4c(S(=O)(=O)O)cc(S(=O)(=O)O)c(N)c4c3O)c(C)c2)ccc1/N=N/c1ccc2c(S(=O)(=O)O)cc(S(=O)(=O)O)c(N)c2c1O [Evans blue]
Evans blue exclusion (integrity of the endothelial barrier) (endothelial barrier): excluded

O=C(O)Cc1cccc(OCCCN(Cc2cccc(C(F)(F)F)c2Cl)CC(c2ccccc2)c2ccccc2)c1 [GW3965]
secretion of native apoE [1]: significantly stimulated

[Cl-].[K+] [KCl, potassium chloride]
glutamate release (glutamate release): increased glutamate release

COC(=O)[C@@H](N)CCCNC(=N)N[N+](=O)[O-] [L-NAME, L-NG-nitroarginine methyl ester]
conversion of L-3H-arginine to L-3H-citruline in the presence of L-NAME (NO synthase): the conversion was blocked

apoE2: Recombinant ApoE2, commercially purchased (ABCAM ab55210)
Aβ42 transport (recovery into circulation medium) (Aβ42 [2]): did not alter | Aβ40 transport (recovery into circulation medium) (Aβ40 [3]): did not alter | Aβ40 accumulated in tissue (Aβ40 [4]): not significantly affected | Aβ42 accumulated in tissue (Aβ42 [5]): selectively decreased; also recorded: significantly reduced

apoE4: Recombinant ApoE4, commercially purchased (ABCAM ab50243)
Aβ42 accumulated in tissue (Aβ42 [5]): selectively elevated

apoE: Native apoE3 secreted from astrocytes in tripartite vessels, stimulated with GW3965 (0.8 μM) for 72 h
accumulation of Aβ42 within tissue (Aβ42 [6]): neither apoE, HDL, nor both apoE and HDL affected accumulation | accumulation of Aβ40 within tissue (Aβ40 [7]): neither apoE, HDL, nor both apoE and HDL affected accumulation | rate of Aβ40 transport (Aβ40 [8]): neither apoE alone nor HDL alone modified the rate | rate of Aβ42 transport (Aβ42 [9]): neither apoE alone nor HDL alone modified the rate
